For this test, the system named is human calcitonin receptor. The test is described as follows: Calcitonin receptor radial partition binding assay, displacement of (3-[125I]iodotyrosyl-22) salmon calcitonin. The settings on record: 1 micromolar salmon calcitonin; MEL cell membranes with cloned human calcitonin receptor; room temperature, 40 minutes; FIG. 3. The protocol:
The lysate was transferred to a glass/Teflon homogeniser and given 10 strokes to ensure cell disruption. The homogenate was centrifuged at 3,000 rpm (1100 g) for 10 minutes at 4 deg.C. […] The low-speed supernatant was removed, and the pellet re-suspended in 10 ml of homogenisation buffer and dispersed with 3×10 second treatments with the Polytron homogeniser, followed by low-speed centifugation as described above. The supernatants from both spins were combined. This was then centrifuged for 30 minutes at 33,000 rpm (100,000 g) at 4 deg C. in an L7 Ultracentrifuge (Beckman) using a Ti75 head. The pellet was re-suspended in 20 mM HEPES, pH 7.4, and re-centrifuged. This pellet was then re-suspended as before and treated with 10 strokes of the glass/Teflon homogeniser.
Protein determination was by the […] method of the Pierce Chemical Co., using their recommended protocol and bovine serum albumin (BSA) as a standard. Membranes were diluted to a stock concentration of 0.08 mg/ml protein, and stored at -70 deg. C.
To a 30×43 cm glass fibre filter mat (Tomtec RG) was added 4 microlitres of receptor preparation to 2,304 positions in a rectangular array. This was allowed to dry for 2 hours at room temperature. […]
The mat was allowed to dry completely and was exposed to a storage phosphor screen (Molecular Dynamics) for 3 hours and analysed using a PhosphorImager SF (Molecular Dynamics).

As to calcitonin [salmon calcitonin], the “inhibition of binding of [125I] salmon calcitonin (central spot, PhosphorImager)” value is recorded as “full inhibition of binding”.

The values are drawn from patent publication US6054282A, “Method for detecting biological interactions especially in receptor binding assays” (Zeneca Limited, priority 1993, dated 2000).
